The target in the assay is T1, soluble guanylate cyclase (human GUCYA3/GUCYB3) overexpressed in CHO cells (Homo sapiens, UniProt Q02108+Q02153).
T1 construct: expressed in transfected cells
T1 sequence (Q02108 1-690 partner): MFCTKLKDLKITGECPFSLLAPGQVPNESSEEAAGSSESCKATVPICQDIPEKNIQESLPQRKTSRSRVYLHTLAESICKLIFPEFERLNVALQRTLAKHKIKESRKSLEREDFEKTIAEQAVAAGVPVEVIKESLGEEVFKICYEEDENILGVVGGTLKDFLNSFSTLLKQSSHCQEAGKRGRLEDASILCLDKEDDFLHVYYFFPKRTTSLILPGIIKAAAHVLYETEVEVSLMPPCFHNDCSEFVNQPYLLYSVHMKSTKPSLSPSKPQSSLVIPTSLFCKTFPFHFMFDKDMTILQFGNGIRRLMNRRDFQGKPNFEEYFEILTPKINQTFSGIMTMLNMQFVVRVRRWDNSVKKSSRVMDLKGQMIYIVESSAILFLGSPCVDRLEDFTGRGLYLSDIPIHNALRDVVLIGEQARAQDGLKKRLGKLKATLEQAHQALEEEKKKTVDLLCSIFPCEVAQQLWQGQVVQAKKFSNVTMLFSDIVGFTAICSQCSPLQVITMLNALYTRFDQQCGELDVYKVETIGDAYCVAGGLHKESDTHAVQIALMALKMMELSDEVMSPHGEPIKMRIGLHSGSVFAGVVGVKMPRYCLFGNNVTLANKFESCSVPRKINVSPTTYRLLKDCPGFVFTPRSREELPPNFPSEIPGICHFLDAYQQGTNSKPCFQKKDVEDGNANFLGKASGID
T1 sequence (Q02153 1-619): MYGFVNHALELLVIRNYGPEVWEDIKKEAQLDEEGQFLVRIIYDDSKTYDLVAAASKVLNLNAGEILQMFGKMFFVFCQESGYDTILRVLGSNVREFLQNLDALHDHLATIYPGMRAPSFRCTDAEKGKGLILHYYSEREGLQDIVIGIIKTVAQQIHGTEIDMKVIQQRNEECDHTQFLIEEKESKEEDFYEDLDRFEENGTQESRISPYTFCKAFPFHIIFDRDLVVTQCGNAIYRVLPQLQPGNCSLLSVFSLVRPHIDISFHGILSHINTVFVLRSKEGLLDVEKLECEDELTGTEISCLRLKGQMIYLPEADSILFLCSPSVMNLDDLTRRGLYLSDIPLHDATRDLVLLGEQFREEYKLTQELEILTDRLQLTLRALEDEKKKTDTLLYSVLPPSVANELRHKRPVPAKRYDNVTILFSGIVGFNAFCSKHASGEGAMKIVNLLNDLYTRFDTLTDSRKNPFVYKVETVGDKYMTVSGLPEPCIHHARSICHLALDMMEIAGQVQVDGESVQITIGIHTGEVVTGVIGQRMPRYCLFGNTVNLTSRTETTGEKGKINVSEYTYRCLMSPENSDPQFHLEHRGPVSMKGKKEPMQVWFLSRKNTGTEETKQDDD
Put plainly: CHO cellular assay (cGMP production, HTRF). The class given is cell-based. The following applies: CHO K1 clone 8E10 overexpressing human sGC, Cisbio HTRF, 1 h room temperature, 1 mM IBMX, 20 uM ODQ, minimum quantification limit 0.5 nM. In a few lines:
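Stable CHO K1 clone expressing human GUCYA3/GUCYB3. Compounds applied 1 h at room temperature in HBSS, 0.1% BSA, 1 mM IBMX, 20 uM ODQ, 0.5% DMSO. cGMP measured by HTRF and interpolated from a standard curve; EC50 from 4-parameter sigmoidal fit.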

A value given as a limit tells only on which side of the number the result lay.

The molecule `CCc1c(C(=O)O)cnn1-c1cccc(-c2sc(C)cc2COc2ccc(C3CCN(C(=O)C4CC4)CC3)cc2C)n1` [Example 35-10, 1-(6-(3-((4-(1-(Cyclopropanecarbonyl)piperidin-4-yl)-2-methylphenoxy)methyl)-5-methylthiophen-2-yl)pyridin-2-yl)-5-ethyl-1H-pyrazole-4-carboxylic acid] came in with an EC50 of no more than 0.5 nM. For `Cc1cc(COc2ccc(C3CCN(C(=O)C4CC4)CC3)c(C3CC3)c2)c(-c2cccc(-n3ncc(C(=O)O)c3C(F)(F)F)n2)s1` [Example 35-12, 1-(6-(3-((4-(1-(Cyclopropanecarbonyl)piperidin-4-yl)-3-cyclopropylphenoxy)methyl)-5-methylthiophen-2-yl)pyridin-2-yl)-5-(trifluoromethyl)-1H-pyrazole-4-carboxylic acid], the EC50 was determined as 1 nM.

Consider `CCc1c(C2CCN(C(=O)C3CC3)CC2)ccc(OCc2cc(C)sc2-c2cccc(-n3ncc(C(=O)O)c3C(F)(F)F)n2)c1F` [Example 35-13, 1-(6-(3-((4-(1-(Cyclopropanecarbonyl)piperidin-4-y1)-3-ethyl-2-fluorophenoxy)methyl)-5-methylthiophen-2-yl)pyridin-2-yl)-5-(trifluoromethyl)-1H-pyrazole-4-carboxylic acid], for which the concentration for a half-maximal effect (EC50) turned out to be 1 nM. Turning to `CCc1cc(OCc2cc(C)sc2-c2cccc(-n3ncc(C(=O)O)c3C(F)(F)F)n2)cnc1C1CCN(C(=O)C2CC2)CC1` [Example 35-14, 1-(6-(3-(((6-(1-(Cyclopropanecarbonyl)piperidin-4-yl)-5-ethylpyridin-3-yl)oxy)methyl)-5-methylthiophen-2-yl)pyridin-2-yl)-5-(trifluoromethyl)-1H-pyrazole-4-carboxylic acid], the EC50 was 15 nM. This EC50 is about 15-fold higher than that of the molecule before. The figure for `CCCc1cc(OCc2cc(C)sc2-c2cccc(-n3ncc(C(=O)O)c3C(F)(F)F)n2)ccc1C1CCN(C(=O)C2CC2)CC1` [Example 35-15, 1-(6-(3-((4-(1-(Cyclopropanecarbonyl)piperidin-4-yl)-3-propylphenoxy)methyl)-5-methylthiophen-2-yl)pyridin-2-yl)-5-(trifluoromethyl)-1H-pyrazole-4-carboxylic acid] is 1.4 nM; for `Cc1cc(C2CCN(C(=O)C3CC3)CC2)ccc1NC(C)c1ccsc1-c1cccc(-n2ncc(C(=O)O)c2C(F)(F)F)c1` (centres unmarked) [Example 36, 1-(3-(3-(1-((4-(1-(Cyclopropanecarbonyl)piperidin-4-yl)-2-methylphenyl)amino)ethyl)thiophen-2-yl)phenyl)-5-(trifluoromethyl)-1H-pyrazole-4-carboxylic acid] it is 15 nM; for `CCc1cc(NCc2cc(C)sc2-c2cccc(-n3ncc(C(=O)O)c3CC)n2)ccc1C1CCN(C(=O)C2CC2)CC1` [Example 37, 1-(6-(3-(((4-(1-(Cyclopropanecarbonyl)piperidin-4-yl)-3-ethylphenyl)amino)methyl)-5-methylthiophen-2-yl)pyridin-2-yl)-5-ethyl-1H-pyrazole-4-carboxylic acid] it is no more than 0.5 nM. Consider `CCc1cc(NCc2c(C(F)(F)F)csc2-c2cccc(-n3ncc(C(=O)O)c3CC)n2)ccc1C1CCN(C(=O)C2CC2)CC1` [Example 38, 1-(6-(3-(((4-(1-(Cyclopropanecarbonyl)piperidin-4-yl)-3-ethylphenyl)amino)methyl)-4-(trifluoromethyl)thiophen-2-yl)pyridin-2-yl)-5-ethyl-1H-pyrazole-4-carboxylic acid], for which the EC50 is no more than 0.5 nM.

Consider `CCc1nc(OCc2cc(C)sc2-c2cccc(-n3ncc(C(=O)O)c3C(F)(F)F)n2)ccc1C1CCN(C(=O)C2CC2)CC1` [Example 39, 1-(6-(3-(((5-(1-(Cyclopropanecarbonyl)piperidin-4-yl)-6-ethylpyridin-2-yl)oxy)methyl)-5-methylthiophen-2-yl)pyridin-2-yl)-5-(trifluoromethyl)-1H-pyrazole-4-carboxylic acid], for which a half-maximal response (EC50) required 1 nM.

In the case of `Cc1cc(C2CCN(CC(F)(F)F)CC2)ccc1OCc1cc(C(C)C)sc1-c1cccc(-n2ncc(C(=O)O)c2C(F)(F)F)n1` [Example 40, 1-(6-(5-Isopropyl-3-((2-methyl-4-(1-(2,2,2-trifluoroethyl)piperidin-4-yl)phenoxy)methyl)thiophen-2-yl)pyridin-2-yl)-5-(trifluoromethyl)-1H-pyrazole-4-carboxylic acid], the concentration giving a half-maximal response (EC50) came out at 370 nM. Against the preceding molecule, the EC50 is about 370-fold higher.

On to `CCCc1cc(COc2ccc(C3CCN(CC(F)(F)F)CC3)cc2C)c(-c2cccc(-n3ncc(C(=O)O)c3C(F)(F)F)n2)s1` [Example 41, 1-(6-(3-((2-Methyl-4-(1-(2,2,2-trifluoroethyl)piperidin-4-yl)phenoxy)methyl)-5-propylthiophen-2-yl)pyridin-2-yl)-5-(trifluoromethyl)-1H-pyrazole-4-carboxylic acid], for which the concentration for a half-maximal effect (EC50) worked out at 428 nM. This EC50 and that of the molecule before are within 1.5-fold of each other. For the molecule `Cc1cc(C2CCN(C(=O)C3CNC3)CC2)ccc1OCc1ccsc1-c1cccc(-n2ncc(C(=O)O)c2C(F)(F)F)n1` [Example 43, 1-(6-(3-((4-(1-(Azetidine-3-carbonyl)piperidin-4-yl)-2-methylphenoxy)methyl)thiophen-2-yl)pyridin-2-yl)-5-(trifluoromethyl)-1H-pyrazole-4-carboxylic acid], the 50% effective concentration (EC50) came to 887 nM. Molecule `CCc1c(C(=O)O)cnn1-c1cccc(-c2sc(C)cc2CCc2ccc(C3CCN(C(=O)C4CC4)CC3)cc2C)n1` [Example 45, 1-(6-(3-(4-(1-(Cyclopropanecarbonyl)piperidin-4-yl)-2-methylphenethyl)-5-methylthiophen-2-yl)pyridin-2-yl)-5-ethyl-1H-pyrazole-4-carboxylic acid] had a concentration giving a half-maximal response (EC50) of no more than 0.5 nM. `Cc1cc(CCc2ccc(C3CCN(C(=O)OC(C)(C)C)CC3)cc2C)c(-c2cccc(-n3ncc(C(=O)O)c3C(F)(F)F)n2)s1` [Example 46, 1-(6-(3-(4-(1-(tert-Butoxycarbonyl)piperidin-4-yl)-2-methylphenethyl)-5-methylthiophen-2-yl)pyridin-2-yl)-5-(trifluoromethyl)-1H-pyrazole-4-carboxylic acid] showed a half-maximal effective concentration (EC50) of 3 nM.

By EC50 is commonly meant the concentration giving half of the maximal effect. High values mean a need for much substance, low ones an effect from little substance.

The values are drawn from US9765067B2, “Thiophen-2-yl-pyridin-2-yl-1H-pyrazole-4-carboxylic acid derivatives and the use thereof as soluble guanylate cyclase activators” (Novartis AG, priority 2014, dated 2017).
